Test results reported in patent publication US20260226037A1, “MICROTUBULE TARGETING AGENTS” (ARIEL SCIENTIFIC INNOVATIONS LTD., priority 2022, published 2026).

How the values were obtained:
[1] = test system: RPMI-MR20 cells; assay: XTT cytotoxicity, RPMI-MR20; assay type: cell-based
Procedure, shortened: (§1)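 Cytotoxicity against the tumour cell lines was determined by XTT assay.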

[2] = test system: MM1.R cells; assay: XTT cytotoxicity, MM1.R; assay type: cell-based; conditions: MM.1R; MM1.R, multiple myeloma, dexamethasone resistant; read-out: IC50
Procedure, shortened: as §1

[3] = test system: N6/ADR cells; assay: XTT cytotoxicity, N6/ADR; assay type: cell-based
[4] = test system: MCF7 cells; assay: XTT cytotoxicity, MCF7; assay type: cell-based; conditions: Homo sapiens; MCF7, breast adenocarcinoma, non-resistant
Procedure, shortened: as §1

[5] = test system: MES-SA cells; assay: XTT cytotoxicity, MES-SA; assay type: cell-based; conditions: Homo sapiens, poorly differentiated uterine sarcoma, non-resistant
Procedure, shortened: as §1

[6] = test system: MES-SA/DX5 cells; assay: XTT cytotoxicity, MES-SA/DX5; assay type: cell-based
Procedure, shortened: as §1

[7] = test system: NCI-H69 cells; assay: XTT cytotoxicity, NCI-H69; assay type: cell-based; conditions: Homo sapiens; NCI-H69, small cell lung carcinoma, non-resistant
Procedure: (§2) The cytotoxic activity of the novel family was evaluated against various tumor cells, including myeloma cells, acute lymphoblastic leukemia cells, acute monocytic leukemia cells, chronic myelogenous leukemia cells, pancreatic cancer cells, breast cancer cells, uterine sarcoma cells, cervix adenocarcinoma cells, ovary cancer cells, melanoma cells, osteosarcoma cells, prostate cancer cells, lung cancer cells, neuroblastoma cells and colorectal adenocarcinoma cells by XTT assay.

[8] = test system: A2780 cells; assay: XTT cytotoxicity, A2780; assay type: cell-based; conditions: Homo sapiens; A2780, ovarian carcinoma, non-resistant
Procedure: as §2

[9] = test system: metastatic breast adenocarcinoma cells; assay: XTT cytotoxicity, metastatic breast adenocarcinoma cells; assay type: cell-based; conditions: highest of the range
Procedure: as §2

[10] = test system: different cancer cell lines; assay: XTT cytotoxicity, various tumor cells; assay type: cell-based; conditions: XTT assay
Procedure: as §2

[11] = test system: colchicine binding site on tubulin protein; assay: EBI competition assay, RPMI-8226 cells; assay type: cell-based; conditions: RPMI-8226 living cells
[12] = test system: colchicine binding site on tubulin protein; assay: EBI competition assay, NALM6 cells; assay type: cell-based
[13] = test system: RPMI8226 cells; assay: Cell cycle distribution by flow cytometry; assay type: cell-based
Procedure: Cell cycle arrest is a shared consequence of MTAs treatment. The effects of cell cycle distribution were determined in RPMI8226 cells treated for 6 and 18 hours with a range of concentrations of the molecules. The cells were stained with propidium iodide and cell cycle distribution was measured using a cytoFLEX flow cytometer.

[14] = test system: HUVEC cells; assay: HUVEC tube formation on Matrigel; assay type: cell-based, human
Procedure: Endothelial cells seeded on Matrigel are able to form three-dimensional capillary structures with a lumen resembling the first angiogenesis steps.
The analysis of anti-angiogenic effect was performed by exposing HUVEC cells to the compounds and seeding them on Matrigel matrix for 4 hours. During this time, control group formed an extensive network lumen-like structure as compared to partially disorganized cells treated with lower doses of SMS077 and SMS182 and disorganized and rounded cells treated with higher doses of the molecules.

[15] = test system: HUVEC cells; assay: Disruption of pre-formed HUVEC capillary-like tubes; assay type: cell-based, human; conditions: tubes formed 4 hours, then 2 hours exposure
Procedure: The analysis of the anti-vascular effect was performed by seeding HUVEC cells on Matrigel matrix, and incubated them until formation of capillary-like tubes, reminiscent of newly formed vessels after 4 hours.

## CCCCCOC(=O)c1[nH]c2c(c1C)C(=O)CC(c1ncco1)C2 (centres unmarked) [SMS077, pentyl 3-methyl-6-(oxazol-2-yl)-4-oxo-4,5,6,7-tetrahydro-1H-indole-2-carboxylate]
[1]; RPMI-MR20, mitoxantrone resistant, read-out: IC50
  IC50: 0.023 µM
[1]; RPMI-MR20 / RPMI 8226
  IC50 ratio between resistant and non-resistant cells: 0.885
[2]
  IC50: 0.036 µM
[3]; N6/ADR / NALM6
  IC50 ratio between resistant and non-resistant cells: 0.895
[3]; N6/ADR, acute lymphoblastic leukemia, P-gp overexpression, read-out: IC50
  IC50: 0.017 µM
[4]
  IC50: 0.38 µM
[5]
  IC50: 0.128 µM
[6]; Homo sapiens, MES-SA/DX5, uterine sarcoma, P-gp overexpression
  IC50: 0.065 µM
[6]; MES-SA/DX5 / MES-SA
  IC50 ratio between resistant and non-resistant cells: 0.508
[7]
  IC50: 0.163 µM
[8]
  IC50: 0.016 µM
[9]
  IC50: 0.426 µM
[10]
  cytotoxic activity: very potent cytotoxic activity against different cancer cell lines at low nanomolar levels
[11]
  prevention of covalent binding of EBI to the colchicine binding site: prevented the covalent binding of EBI to the colchicine binding site
[12]
  binding to the colchicine binding site: bound to the colchicine binding site
[13]; 6 hours, IC50, IC50x2.5 and IC50x5 concentrations
  cell cycle arrest: cell cycle arrest in G2M phase
[13]; 18 hours of treatment
  subG0 phase: increased in subG0 phase
[14]; 4 hours
  inhibition of tubule formation: dose dependent inhibition of tubule formation
[14]; 4 hours of treatment
  concentration at which tubule formation was significantly inhibited: 75 nM
[15]
  disruption of pre-formed capillary-like tube network: disrupted the integrity of the network in a dose dependent manner
